Reference: US20100004443A1, “LINEAR PYRIDAZINE AND PYRROLE COMPOUNDS, METHOD FOR OBTAINING THEM AND APPLICATIONS” (CENTRE NATIONAL DE LA RECHERCHE SCIENTIFIQUE (C.N., priority 2006, published 2010)
In brackets after ≈: the same amount, converted by molar mass. Several values for one entry are separate records, joined by “and”; a condition that tells them apart may be missing. Equal values may be shown once.

Key:
Candida albicans = assay: Parasitology, Candida albicans; assay type: cell-based; settings: read-out: Parasitology IC50 or 80 Candida albicans
Leishmania mexicana = assay: Parasitology, Leishmania mexicana; assay type: cell-based; settings: read-out: Parasitology IC50 or 80 Leishmania mexicana
KB cells = assay: Cytotoxicity on KB cells; assay type: cell-based
[1] = test system: KB, Caco, Huh7 and fibroblast cells; assay: in vitro cytotoxicity test on KB, Caco, Huh7 and fibroblast cells; assay type: cell-based
Description: Preferably, the cancer concerned by the invention is a carcinoma, for instance a carcinoma of the ear, nose or throat, of the lungs, of the uterus, of the digestive system (oesophagus, colon, liver), of the skin, of the breasts, of the prostate, of the ovaries, etc.

tonB protein = tonB protein (Escherichia coli, UniProt P02929); assay: Effect on tonB protein (iron transfer for bacterial growth)
E. coli = assay: Inhibition of the growth of E. coli; assay type: cell-based
Cytotoxicity on KB cells = assay type: cell-based; settings: human, KB cells
[2] = second value (cell beside the first)

Sequence of tonB protein (P02929 whole entry): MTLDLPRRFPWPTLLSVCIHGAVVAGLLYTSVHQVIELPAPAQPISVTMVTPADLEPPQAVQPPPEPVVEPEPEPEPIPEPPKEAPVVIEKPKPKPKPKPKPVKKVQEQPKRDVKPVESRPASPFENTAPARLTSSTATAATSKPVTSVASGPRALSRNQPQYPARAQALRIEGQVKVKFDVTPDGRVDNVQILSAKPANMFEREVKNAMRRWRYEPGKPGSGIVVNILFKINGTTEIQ

Compound | IC50 (Candida albicans) | IC50 (Leishmania mexicana) | KB cells Cytotoxicity % inhibition à [10^−5] (KB cells; first value) | KB cells Cytotoxicity % inhibition à [10^−5] (KB cells; [2]) | cytotoxic activity in a cancerous cell model [1] | effect on the tonB protein (tonB protein) | inhibition of the growth of E. coli (E. coli) | IC50 (Cytotoxicity on KB cells) | IC50 (KB cells; Homo sapiens, KB, read-out: IC50 on KB cancerous cells)
O=C(O)c1cccc(-c2ccc(-c3ccccn3)nn2)n1 [Compound 45, 3-(2-carboxypyridin-6-yl)-6-(pyridin-2-yl)-pyridazine] | > 100 µM | 14 µM and 3.9 µg/mL | 9% | 3% |  |  |  |  | 
S=c1ccc(-c2ccccn2)n[nH]1 [Compound 10, 6-(pyridin-2-yl)-2H-pyridazin-3-thione] |  |  | 84% | 74% | very high levels of cytotoxic activity |  |  |  | 
C=C(OCC)c1ccc(-c2ccc(C(=C)OCC)nn2)nn1 [Compound 24, 6,6′-di-(1-ethoxyvinyl)-3,3′-bipyridazine] |  |  | 96% | 95% | very high levels of cytotoxic activity | affects the tonB protein | able to inhibit the growth of E. coli | 1.23 µM and 0.37 µg/mL | 0.3 mg/L (≈ 1.01 µM)
O=C(O)c1cccc(-c2ccc(-c3cccc(C(=O)O)n3)nn2)n1 [Compound 48, 3,6-bis(2-carboxypyridin-6-yl)-pyridazine] | > 100 µM and ≥ 32.2 µg/mL | 3 µM and 0.96 µg/mL | 21% |  |  |  |  |  | 
Cc1cccc(-c2ccc(-c3ccc(-c4cccc(C)n4)nn3)nn2)n1 [Compound 2, 6,6′-bis(6-methylpyridin-2-yl)-3,3′-bipyridazine] | 62 µM and 25.9 µg/mL | 2.2 µM and 0.91 µg/mL | 23% | 12% |  |  |  |  | 
CCCCc1cc(-c2ccccn2)[nH]c1-c1ccccn1 [Compound 68] |  |  | 43% |  |  |  |  |  | 
c1ccc(-c2ccc(-c3ccc(-c4ccccn4)nn3)nn2)nc1 [Compound 19, 6,6′-bis(pyridin-2-yl)-3,3′-bipyridazine] |  |  | 16% |  |  |  |  |  | 
c1ccc(-c2ccc(-c3ccccn3)nn2)nc1 [Compound 80, 3,6-bispyridin-2-ylpyridazine] |  |  |  |  | very high levels of cytotoxic activity |  |  |  | 
Cc1cccc(-c2ccc(-c3ccccn3)nn2)n1 [Compound 44, 3-(6-methylpyridin-2-yl)-6-(pyridin-2-yl)pyridazine] | 600 nM and 0.15 µg/mL | < 1 µM and < 0.25 µg/mL | 11% | 21% | very high levels of cytotoxic activity |  |  |  | 
